Several values for one entry are separate records, joined by “and”; a condition that tells them apart may be missing. Equal values may be shown once. Where a name gives a salt, the structure may show the parent alone. Activity calls are given as the source filed them.
Key:
[1] = target: Intestinal-type alkaline phosphatase (Mus musculus, UniProt P24822); experiment: PubChem AID 488874; assay type: functional
[2] = target: T1, Rac GTPase-activating protein 1 (Homo sapiens, UniProt Q9H0H5); experiment: MgcRacGAP GTPase-activating activity inhibitors, confirmation, biochemical, ADP Hunter fluorescence, primary and confirmatory (AID 624330); assay type: functional
T1 sequence (Q9H0H5 whole entry): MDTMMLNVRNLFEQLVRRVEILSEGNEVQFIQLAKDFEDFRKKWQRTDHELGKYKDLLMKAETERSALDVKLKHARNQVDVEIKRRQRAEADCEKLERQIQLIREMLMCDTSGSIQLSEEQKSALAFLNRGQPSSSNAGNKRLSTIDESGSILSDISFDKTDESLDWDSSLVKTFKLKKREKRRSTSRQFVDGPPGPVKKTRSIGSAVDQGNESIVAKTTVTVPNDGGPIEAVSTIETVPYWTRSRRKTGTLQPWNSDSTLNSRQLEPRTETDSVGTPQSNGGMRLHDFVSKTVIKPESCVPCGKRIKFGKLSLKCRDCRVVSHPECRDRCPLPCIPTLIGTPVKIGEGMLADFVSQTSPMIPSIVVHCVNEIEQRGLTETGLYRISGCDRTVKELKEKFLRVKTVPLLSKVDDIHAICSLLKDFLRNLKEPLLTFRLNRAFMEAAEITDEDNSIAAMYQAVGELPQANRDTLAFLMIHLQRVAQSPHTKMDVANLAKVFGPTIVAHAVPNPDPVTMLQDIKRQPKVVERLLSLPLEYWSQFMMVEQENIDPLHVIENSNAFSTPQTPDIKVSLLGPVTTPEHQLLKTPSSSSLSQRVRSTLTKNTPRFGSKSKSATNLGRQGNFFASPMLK

[3] = target: T2, Alkaline phosphatase, tissue-nonspecific isozyme (Homo sapiens, UniProt P05186); experiment: inhibition of tissue-nonspecific alkaline phosphatase – biochemical, dose response (AID 488882); assay type: functional
T2 sequence (P05186 whole entry): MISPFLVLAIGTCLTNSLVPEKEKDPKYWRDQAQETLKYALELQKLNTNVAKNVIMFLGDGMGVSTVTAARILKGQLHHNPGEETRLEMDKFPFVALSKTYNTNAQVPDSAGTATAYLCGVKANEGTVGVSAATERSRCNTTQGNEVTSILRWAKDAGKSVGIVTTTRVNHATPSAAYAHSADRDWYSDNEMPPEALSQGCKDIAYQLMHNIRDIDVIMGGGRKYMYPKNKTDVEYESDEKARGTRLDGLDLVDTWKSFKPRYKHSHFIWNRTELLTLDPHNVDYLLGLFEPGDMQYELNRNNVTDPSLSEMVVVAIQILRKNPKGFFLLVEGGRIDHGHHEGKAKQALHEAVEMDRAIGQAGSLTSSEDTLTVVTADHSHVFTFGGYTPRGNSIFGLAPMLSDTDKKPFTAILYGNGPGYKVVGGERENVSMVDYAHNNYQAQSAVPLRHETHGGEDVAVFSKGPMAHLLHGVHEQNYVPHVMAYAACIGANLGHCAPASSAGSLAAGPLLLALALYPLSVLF

[4] = M. tuberculosis H37Rv growth inhibitors, H37Rv strain (AID 1626); assay type: functional
[5] = target: 5-hydroxytryptamine receptor 1A (Homo sapiens, UniProt P08908); assay type: functional
[6] = target: T3, Zinc finger protein mex-5 (Caenorhabditis elegans, UniProt Q9XUB2); experiment: MEX-5/TCR-2 RNA interaction inhibitors, dose response, biochemical, C. elegans, fluorescence polarization (AID 1960)
T3 sequence (Q9XUB2 whole entry): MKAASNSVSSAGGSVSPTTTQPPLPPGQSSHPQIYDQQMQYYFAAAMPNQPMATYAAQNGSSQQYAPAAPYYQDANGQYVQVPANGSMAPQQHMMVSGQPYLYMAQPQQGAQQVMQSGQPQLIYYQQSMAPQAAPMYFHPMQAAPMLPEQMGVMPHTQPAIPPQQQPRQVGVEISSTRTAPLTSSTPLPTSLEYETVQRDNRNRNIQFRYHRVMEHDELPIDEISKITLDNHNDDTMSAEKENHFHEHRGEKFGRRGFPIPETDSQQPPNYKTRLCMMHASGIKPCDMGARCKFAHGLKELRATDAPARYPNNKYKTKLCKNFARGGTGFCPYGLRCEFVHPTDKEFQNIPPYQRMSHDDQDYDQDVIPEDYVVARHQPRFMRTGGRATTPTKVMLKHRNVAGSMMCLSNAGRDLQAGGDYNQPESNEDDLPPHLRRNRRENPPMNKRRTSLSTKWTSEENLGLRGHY

[7] = target: Tyrosine-protein kinase JAK2 (Homo sapiens, UniProt O60674); assay type: functional;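 also: JAK2 tested as one member of a kinase panel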
[8] = target: Serine/threonine-protein kinase Nek2 (Homo sapiens, UniProt P51955); assay type: functional
[9] = target: Serine/threonine-protein kinase PLK3 (Homo sapiens, UniProt Q9H4B4); assay type: functional
[10] = target: Dual specificity tyrosine-phosphorylation-regulated kinase 1A (Homo sapiens, UniProt Q13627); assay type: functional;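 also: measured against DYRK1A as one member of a broad kinome profiling panel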
[11] = target: Tyrosine-protein kinase Fer (Homo sapiens, UniProt P16591); assay type: functional;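 also: FER tested as one member of a kinome panel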
[12] = target: Cell division cycle 7-related protein kinase (Homo sapiens, UniProt O00311); assay type: functional;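 also: value obtained from a kinome-wide kinase panel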
[13] = target: Dual specificity tyrosine-phosphorylation-regulated kinase 3 (Homo sapiens, UniProt O43781); assay type: functional;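 also: measured as one member of a broad kinase panel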
SRSF protein kinase 1 = SRSF protein kinase 1 (Homo sapiens, UniProt Q96SB4); assay type: functional;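 also: measured as one member of a kinome-wide kinase profiling panel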
[14] = target: Dual specificity tyrosine-phosphorylation-regulated kinase 4 (Homo sapiens, UniProt Q9NR20); assay type: functional

Sequence of Dual specificity tyrosine-phosphorylation-regulated kinase 3 (O43781 whole entry): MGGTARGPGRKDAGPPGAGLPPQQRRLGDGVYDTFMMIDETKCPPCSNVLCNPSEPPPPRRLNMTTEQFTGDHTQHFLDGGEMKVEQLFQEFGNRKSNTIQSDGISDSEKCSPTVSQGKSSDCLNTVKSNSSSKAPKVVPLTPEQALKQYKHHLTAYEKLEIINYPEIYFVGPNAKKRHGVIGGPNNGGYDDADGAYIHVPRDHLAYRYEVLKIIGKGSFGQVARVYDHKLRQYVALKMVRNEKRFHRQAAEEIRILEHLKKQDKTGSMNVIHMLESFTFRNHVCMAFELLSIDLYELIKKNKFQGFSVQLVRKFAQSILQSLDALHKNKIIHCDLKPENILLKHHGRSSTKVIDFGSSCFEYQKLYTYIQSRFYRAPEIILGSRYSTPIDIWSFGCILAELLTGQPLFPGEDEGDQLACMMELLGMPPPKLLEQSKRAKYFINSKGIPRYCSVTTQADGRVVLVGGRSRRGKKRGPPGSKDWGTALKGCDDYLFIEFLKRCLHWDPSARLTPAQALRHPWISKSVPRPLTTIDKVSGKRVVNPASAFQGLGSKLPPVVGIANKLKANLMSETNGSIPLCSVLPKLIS
Sequence of 5-hydroxytryptamine receptor 1A (P08908 whole entry): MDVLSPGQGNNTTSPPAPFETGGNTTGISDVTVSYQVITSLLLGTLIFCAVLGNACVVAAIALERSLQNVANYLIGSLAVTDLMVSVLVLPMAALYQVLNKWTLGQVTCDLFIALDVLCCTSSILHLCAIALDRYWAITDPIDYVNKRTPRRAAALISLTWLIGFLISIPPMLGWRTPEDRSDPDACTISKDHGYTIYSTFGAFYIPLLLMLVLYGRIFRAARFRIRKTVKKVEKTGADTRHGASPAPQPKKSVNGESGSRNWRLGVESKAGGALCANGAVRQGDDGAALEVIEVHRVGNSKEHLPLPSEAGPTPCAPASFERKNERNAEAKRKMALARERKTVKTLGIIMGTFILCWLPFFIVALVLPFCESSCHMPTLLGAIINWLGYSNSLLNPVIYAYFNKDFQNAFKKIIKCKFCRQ
Sequence of Serine/threonine-protein kinase PLK3 (Q9H4B4 whole entry): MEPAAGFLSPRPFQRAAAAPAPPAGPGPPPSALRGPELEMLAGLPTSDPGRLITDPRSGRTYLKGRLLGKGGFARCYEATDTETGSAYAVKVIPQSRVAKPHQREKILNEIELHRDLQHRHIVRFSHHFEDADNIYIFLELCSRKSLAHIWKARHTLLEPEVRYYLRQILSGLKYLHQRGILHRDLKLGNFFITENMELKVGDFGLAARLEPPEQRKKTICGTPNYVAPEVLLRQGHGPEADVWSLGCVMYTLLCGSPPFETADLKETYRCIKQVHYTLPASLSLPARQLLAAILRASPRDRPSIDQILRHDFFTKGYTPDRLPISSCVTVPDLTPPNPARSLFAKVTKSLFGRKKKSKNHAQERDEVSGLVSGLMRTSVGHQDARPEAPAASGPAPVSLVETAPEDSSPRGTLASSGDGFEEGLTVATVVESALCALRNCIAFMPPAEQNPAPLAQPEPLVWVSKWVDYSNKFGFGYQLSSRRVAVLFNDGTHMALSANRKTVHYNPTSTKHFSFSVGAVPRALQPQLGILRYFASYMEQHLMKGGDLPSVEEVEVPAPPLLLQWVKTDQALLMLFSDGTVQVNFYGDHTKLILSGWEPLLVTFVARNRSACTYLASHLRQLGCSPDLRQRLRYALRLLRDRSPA
Sequence of Cell division cycle 7-related protein kinase (O00311 whole entry): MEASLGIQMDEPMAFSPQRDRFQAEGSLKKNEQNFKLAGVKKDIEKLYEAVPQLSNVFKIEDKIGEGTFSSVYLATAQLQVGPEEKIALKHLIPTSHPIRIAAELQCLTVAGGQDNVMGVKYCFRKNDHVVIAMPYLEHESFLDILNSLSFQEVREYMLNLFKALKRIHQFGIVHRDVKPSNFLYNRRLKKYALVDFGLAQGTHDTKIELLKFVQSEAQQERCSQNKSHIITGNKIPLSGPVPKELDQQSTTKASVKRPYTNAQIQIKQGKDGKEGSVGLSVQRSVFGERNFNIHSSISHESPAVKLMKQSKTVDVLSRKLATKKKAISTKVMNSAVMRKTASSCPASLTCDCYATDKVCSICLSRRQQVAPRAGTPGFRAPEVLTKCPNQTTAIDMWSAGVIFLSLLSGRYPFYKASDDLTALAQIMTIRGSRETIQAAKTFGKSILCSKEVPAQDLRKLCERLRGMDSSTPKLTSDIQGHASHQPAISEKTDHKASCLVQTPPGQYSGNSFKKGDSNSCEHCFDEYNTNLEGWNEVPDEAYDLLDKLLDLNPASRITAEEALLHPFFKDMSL
Sequence of Tyrosine-protein kinase JAK2 (O60674 whole entry): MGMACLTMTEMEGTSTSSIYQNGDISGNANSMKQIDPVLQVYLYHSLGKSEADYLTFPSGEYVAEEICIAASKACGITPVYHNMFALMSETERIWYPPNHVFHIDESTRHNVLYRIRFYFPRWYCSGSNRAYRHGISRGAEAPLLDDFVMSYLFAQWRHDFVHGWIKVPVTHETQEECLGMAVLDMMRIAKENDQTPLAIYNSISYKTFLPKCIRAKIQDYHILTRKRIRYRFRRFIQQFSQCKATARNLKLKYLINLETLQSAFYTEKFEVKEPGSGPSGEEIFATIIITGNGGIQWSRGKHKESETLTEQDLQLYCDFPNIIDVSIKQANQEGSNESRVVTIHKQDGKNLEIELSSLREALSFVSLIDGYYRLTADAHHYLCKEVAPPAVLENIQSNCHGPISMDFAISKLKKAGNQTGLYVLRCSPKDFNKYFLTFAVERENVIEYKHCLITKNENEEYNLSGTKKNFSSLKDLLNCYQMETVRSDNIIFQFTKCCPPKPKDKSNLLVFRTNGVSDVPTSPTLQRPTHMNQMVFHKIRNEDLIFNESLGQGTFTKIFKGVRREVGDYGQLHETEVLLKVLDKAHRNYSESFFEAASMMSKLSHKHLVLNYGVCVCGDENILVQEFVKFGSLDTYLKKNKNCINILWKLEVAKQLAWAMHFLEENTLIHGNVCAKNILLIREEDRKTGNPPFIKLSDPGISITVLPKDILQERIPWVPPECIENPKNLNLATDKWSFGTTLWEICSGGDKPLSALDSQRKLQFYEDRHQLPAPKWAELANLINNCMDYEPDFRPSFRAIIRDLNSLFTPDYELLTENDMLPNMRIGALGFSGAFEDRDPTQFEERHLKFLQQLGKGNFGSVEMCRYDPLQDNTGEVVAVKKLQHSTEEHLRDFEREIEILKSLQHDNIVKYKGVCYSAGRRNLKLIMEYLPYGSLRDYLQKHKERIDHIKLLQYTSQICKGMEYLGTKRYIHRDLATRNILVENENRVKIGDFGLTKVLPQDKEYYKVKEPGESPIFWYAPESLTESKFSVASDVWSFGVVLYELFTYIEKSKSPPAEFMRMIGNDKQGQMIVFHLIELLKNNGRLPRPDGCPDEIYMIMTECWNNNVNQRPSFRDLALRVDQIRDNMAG
Sequence of Intestinal-type alkaline phosphatase (P24822 whole entry): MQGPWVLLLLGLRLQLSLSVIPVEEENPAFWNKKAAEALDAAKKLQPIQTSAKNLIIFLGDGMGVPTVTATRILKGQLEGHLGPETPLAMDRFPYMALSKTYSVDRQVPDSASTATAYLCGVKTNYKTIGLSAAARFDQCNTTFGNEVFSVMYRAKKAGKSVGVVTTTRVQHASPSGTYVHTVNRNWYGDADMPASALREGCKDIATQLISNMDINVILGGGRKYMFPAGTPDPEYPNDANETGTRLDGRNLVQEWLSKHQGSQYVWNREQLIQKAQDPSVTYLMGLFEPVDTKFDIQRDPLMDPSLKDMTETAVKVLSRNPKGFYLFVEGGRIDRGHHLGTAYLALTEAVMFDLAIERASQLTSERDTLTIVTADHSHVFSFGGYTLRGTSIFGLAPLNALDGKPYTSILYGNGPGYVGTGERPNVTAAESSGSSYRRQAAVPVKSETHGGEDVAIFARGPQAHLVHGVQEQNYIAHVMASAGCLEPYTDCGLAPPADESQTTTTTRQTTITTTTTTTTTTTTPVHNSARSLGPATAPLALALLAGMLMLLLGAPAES
Sequence of Serine/threonine-protein kinase Nek2 (P51955 whole entry): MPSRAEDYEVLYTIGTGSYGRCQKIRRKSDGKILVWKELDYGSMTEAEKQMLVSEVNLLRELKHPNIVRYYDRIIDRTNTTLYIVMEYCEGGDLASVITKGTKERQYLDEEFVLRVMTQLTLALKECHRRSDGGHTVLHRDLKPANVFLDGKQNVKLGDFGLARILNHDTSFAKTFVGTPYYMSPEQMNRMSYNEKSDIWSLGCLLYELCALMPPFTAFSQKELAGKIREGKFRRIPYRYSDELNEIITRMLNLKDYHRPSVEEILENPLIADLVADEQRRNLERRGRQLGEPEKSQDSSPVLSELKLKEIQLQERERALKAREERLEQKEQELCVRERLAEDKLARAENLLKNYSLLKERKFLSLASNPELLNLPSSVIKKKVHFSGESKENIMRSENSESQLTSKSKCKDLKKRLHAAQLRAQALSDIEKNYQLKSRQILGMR
Sequence of SRSF protein kinase 1 (Q96SB4 whole entry): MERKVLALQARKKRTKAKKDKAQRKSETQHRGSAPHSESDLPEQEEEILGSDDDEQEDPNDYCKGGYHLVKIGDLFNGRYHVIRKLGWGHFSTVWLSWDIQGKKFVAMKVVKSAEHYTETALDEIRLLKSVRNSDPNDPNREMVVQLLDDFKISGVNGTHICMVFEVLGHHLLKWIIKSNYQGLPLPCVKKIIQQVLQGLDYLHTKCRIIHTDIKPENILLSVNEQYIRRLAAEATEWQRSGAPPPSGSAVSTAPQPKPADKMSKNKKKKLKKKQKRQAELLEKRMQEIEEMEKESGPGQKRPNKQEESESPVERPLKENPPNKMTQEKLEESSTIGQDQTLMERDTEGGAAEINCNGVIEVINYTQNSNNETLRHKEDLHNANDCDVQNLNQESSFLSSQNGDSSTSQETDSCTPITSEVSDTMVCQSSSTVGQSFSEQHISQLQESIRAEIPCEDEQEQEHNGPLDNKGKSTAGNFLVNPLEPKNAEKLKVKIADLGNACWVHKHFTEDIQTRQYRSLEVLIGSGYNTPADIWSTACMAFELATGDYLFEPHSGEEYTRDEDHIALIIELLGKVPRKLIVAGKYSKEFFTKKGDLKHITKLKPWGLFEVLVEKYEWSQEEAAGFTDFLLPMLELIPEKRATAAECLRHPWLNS

CCN1/C(=C\c2ccc3ccccc3[n+]2CC)Sc2cc(C)ccc21
IC50 [1]: 20.8 µM (active) | IC50 [2]: 81.3 µM (active) | IC50 [3]: 28.6 µM (active)

O=C(CCl)Oc1ccc2occ(C(=O)c3cccs3)c2c1
IC50 [4]: > 100 µM (active)

CC[C@@H](CO)NC(=O)[C@@H]1C=C2c3cccc4c3c(cn4C)C[C@H]2N(C)C1 [METHYSERGIDE MALEATE]
EC50 [5]: 1.07 µM (active) | EC50 [6]: 12.3 µM (active) and 20 µM (inconclusive)

CN1CCN(c2nc(C3=C(c4c[nH]c5ccccc45)C(=O)NC3=O)c3ccccc3n2)CC1 [SOTRASTAURIN]
Ki [7]: > 2.51 µM (inactive) | Ki [8]: > 6.31 µM (inactive) | Ki [9]: > 7.94 µM (inactive) | Ki [10]: > 3.98 µM (inactive) | Ki [11]: 0.316 µM (active) | Ki [12]: > 1.26 µM (inactive) | Ki [13]: 6.31 µM (active) | Ki (SRSF protein kinase 1): > 7.94 µM (inactive) | Ki [14]: > 7.94 µM (inactive)

— ChEMBL document CHEMBL1201862, “PubChem BioAssay data set” (2004)
